The text below walks through data of patent US12673924B2, “Valiolamine derivatives as glucosidase inhibitors” (Emergent Product Development Gaithersburg Inc., priority 2021, dated 2026).

What all share (type): biochemical
The target in one assay is T1, recombinant human GBA (Homo sapiens, UniProt P04062).
T1 construct: purchased
T1 sequence (P04062 40-536): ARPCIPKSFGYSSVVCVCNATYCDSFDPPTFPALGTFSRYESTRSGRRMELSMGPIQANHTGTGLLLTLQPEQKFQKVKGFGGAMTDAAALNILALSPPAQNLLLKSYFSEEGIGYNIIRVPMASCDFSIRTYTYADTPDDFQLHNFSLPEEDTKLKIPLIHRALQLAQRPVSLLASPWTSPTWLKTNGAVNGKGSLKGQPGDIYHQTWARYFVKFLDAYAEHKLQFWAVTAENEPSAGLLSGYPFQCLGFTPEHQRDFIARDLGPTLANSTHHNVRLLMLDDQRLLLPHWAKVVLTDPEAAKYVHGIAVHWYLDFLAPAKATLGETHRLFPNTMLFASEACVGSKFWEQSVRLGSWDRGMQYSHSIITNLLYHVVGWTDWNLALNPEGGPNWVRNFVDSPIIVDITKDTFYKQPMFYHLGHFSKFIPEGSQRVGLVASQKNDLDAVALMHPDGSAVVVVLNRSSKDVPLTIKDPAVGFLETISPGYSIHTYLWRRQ
In words: Beta-glucocerebrosidase (GBA) inhibition assay. Conditions: 4-methylumbelliferyl-beta-D-pyranoside substrate, 4-PL curve fit. How it is done:
Beta-glucocerebrosidase (GBA, also referred to glucosylceramidase): To analyze inhibitory effects of a test compound, commercially available recombinant human GBA was incubated with multiple dilutions of test compound for 60 minutes at 37° C. 4-methylumbelliferyl-beta-D-pyranoside was then introduced to the mixture as substrate. Following incubation for 60 minutes at 37° C., 1,4-methyllumbelliferone was generated, and the reaction was stopped with the stop solution (0.5 M glycine; 0.3 M NaOH, pH 10). 1,4-methyllumbelliferone was detected by fluorescence (excitation at 365 nm, emission at 440 nm). Relative fluorescence is compared to untreated enzymatic activity and test compound concentration is then plotted as a function of percent inhibition. The IC50 was determined using a 4-PL curve fit as the measure of relative inhibitory activity of each test compound (see Table 4).

The next assay deals with T2, rat sucrase (Rattus norvegicus, UniProt P23739).
T2 construct: partially purified alpha-glucosidase from intestinal rat powder; from tissue; host or cells: rat intestinal powder
T2 sequence (P23739 whole entry): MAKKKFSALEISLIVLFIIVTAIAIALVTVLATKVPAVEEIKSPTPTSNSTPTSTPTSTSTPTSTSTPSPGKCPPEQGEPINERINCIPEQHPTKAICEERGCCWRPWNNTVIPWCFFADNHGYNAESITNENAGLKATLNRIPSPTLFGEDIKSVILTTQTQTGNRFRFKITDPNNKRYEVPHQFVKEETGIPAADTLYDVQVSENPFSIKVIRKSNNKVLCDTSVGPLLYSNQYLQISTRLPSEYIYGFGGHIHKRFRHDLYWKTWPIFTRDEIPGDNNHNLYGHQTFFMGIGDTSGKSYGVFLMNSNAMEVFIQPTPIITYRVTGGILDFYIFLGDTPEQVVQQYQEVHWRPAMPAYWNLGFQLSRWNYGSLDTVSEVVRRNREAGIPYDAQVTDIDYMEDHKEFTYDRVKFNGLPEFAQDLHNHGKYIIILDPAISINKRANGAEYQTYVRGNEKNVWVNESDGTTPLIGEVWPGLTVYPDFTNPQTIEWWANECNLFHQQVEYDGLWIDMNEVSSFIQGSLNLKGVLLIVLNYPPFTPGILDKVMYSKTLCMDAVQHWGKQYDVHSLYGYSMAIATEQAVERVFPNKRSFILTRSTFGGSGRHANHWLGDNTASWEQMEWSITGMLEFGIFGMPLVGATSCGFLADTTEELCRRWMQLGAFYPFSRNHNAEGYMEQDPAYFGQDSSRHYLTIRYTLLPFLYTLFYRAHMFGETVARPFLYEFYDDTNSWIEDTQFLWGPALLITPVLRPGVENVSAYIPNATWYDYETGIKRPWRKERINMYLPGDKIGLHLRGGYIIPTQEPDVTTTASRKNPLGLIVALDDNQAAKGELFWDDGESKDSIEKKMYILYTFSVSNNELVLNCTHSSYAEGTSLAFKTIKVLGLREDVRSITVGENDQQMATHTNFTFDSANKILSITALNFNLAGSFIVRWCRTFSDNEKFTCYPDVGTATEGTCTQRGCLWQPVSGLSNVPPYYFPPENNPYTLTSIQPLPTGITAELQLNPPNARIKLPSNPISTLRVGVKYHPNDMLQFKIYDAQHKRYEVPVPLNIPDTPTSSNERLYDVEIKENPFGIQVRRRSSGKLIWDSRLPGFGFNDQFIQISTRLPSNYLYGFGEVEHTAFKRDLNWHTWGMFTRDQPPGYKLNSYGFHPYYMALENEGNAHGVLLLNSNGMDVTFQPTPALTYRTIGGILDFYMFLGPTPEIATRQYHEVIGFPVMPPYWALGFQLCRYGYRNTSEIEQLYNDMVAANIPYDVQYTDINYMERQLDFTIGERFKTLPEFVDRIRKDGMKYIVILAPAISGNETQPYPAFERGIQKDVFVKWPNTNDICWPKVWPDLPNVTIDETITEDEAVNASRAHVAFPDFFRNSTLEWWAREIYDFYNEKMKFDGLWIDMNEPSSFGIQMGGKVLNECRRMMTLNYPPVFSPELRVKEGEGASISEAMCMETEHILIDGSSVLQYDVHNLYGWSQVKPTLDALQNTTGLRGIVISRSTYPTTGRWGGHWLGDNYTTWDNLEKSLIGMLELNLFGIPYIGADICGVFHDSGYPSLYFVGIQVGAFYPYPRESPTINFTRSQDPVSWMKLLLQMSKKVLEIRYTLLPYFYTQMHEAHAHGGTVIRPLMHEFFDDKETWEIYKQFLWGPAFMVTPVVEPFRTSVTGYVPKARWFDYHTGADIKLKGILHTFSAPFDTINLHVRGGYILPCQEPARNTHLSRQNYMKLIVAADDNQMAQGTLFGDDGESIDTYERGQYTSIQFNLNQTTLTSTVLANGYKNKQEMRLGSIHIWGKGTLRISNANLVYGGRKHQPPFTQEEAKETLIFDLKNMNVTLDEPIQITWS
Put plainly: Intestinal alpha-glucosidase assay, sucrose substrate. The conditions noted are these: alpha-glucosidase from intestinal rat powder. How it is done: (§1) Intestinal alpha-glucosidases (rat maltase and sucrase): Intestinal alpha-glucosidases act upon 1,4-alpha-glucoside bonds, breaking down disaccharides to glucose. To perform this assay, partially purified alpha-glucosidase from intestinal rat powder was incubated for 60 minutes at 37° C. with multiple dilutions of test compounds. Maltose or Sucrose respectively was then introduced as substrate to the mixture and incubated for 30 minutes at 37° C. The reaction was stopped by a 5-minute incubation at 90° C. and the resultant glucose production is detected using Sigma's Glucose GO Kit. Percent inhibition was then plotted as a function of concentration for each test compound. The IC50 was determined using a 4-PL curve fit and serves as the measure of relative inhibition of each test compound (see Table 4). Table 4 summarizes the results of IC50s for each molecule against each tested glucosidase enzyme.

A further assay deals with rat maltase. In words: Intestinal alpha-glucosidase assay, maltose substrate. Conditions: alpha-glucosidase from intestinal rat powder. How it is done:
as §1

Bounds are passed on as bounds.

Consider `CCCCN[C@H]1C[C@](O)(CO)[C@@H](O)[C@H](O)[C@H]1O` [Compound 1, (1S,2S,3R,4S,5S)-5-(butylamino)-1-(hydroxymethyl)cyclohexane-1,2,3,4-tetraol], for which the values for the IC50 at recombinant human GBA, at rat sucrase and against rat maltase were greater than 1000 µM, 0.07 µM and 1.47 µM, respectively.
